Test results published in patent publication US10106519B2, “3-phenyl-7-hydroxy-isocoumarins as macrophage migration inhibitory factor (MIF) inhibitors” (The Provost, Fellows, Foundation Scholars, & the Other …, priority 2014, dated 2018).
Entries after “also recorded” stand apart in the source; their conditions may differ.

What was measured:
[1] = system: LPS induced TNF-α production; assay: Inhibition of LPS induced TNF-α production in RAW 264.7 macrophage cells (ELISA); format: cell-based, mouse
Description: RAW 264.7 macrophage cells were plated at 1×10^5/ml in 450 μl of medium in a 48 well plate. 16 hours later cells were treated with ISO-1 or Tautomerase Inhibitors at a final concentration of 10, 50 or 100 μM for 30 minutes before stimulation with 100 ng/ml LPS. Supernatants were collected after 20 hours for determination of TNF-α levels. TNF-α levels were determined using a TNF-α specific ELISA (CAT # DY410 R&D Syst).
96 well plates were coated with 50 μl of Capture Antibody ([…]) in PBS and sealed and incubated overnight at 4° C. Plates were then washed three times in 0.05% PBS Tween and plates blotted. Plates were blocked by adding 150 μl of 1% BSA in PBS (Gibco—cat no. 14190-094) to each well and incubated at room temperature for 2 hours. Plates were washed again as previously described. 50 μl of sample or standard was added to each well and incubated for overnight at 4° C. Plates were then washed again as described. 50 μl of the detection Antibody (200 ng/ml) in 1% BSA in PBS was added to each well and incubated for 2 hours at room temperature. Plates were then washed again as described. 50 μl of working concentration of Streptavidin—HRP was added to each well and plates were covered and incubated for 20 minutes at room temperature. 50 μl of substrate solution (One OPD tablet and one urea hydrogen peroxide/buffer tablet were dissolved in 20 ml of water to yield a ready to use buffered solution, Sigma—cat no. 9187-50) was added to each well and incubated for 20 minutes at room temperature. 25 μl of 2N H2SO4 was added to each well to stop the reaction. The optical density of each well was then measured with a spectrophotometer at 450 nm.
Initially the panel of 25 novel potential tautomerase inhibitors was screened in an in-vitro system. In order to do this we exploited the fact that MIF is needed for optimal LPS induced TNF-α production. We therefore reasoned that our potential TIs should be able to inhibit LPS induced TNF-α in RAW macrophage murine cells. RAW macrophage murine cells were plated at 37° C. in a humidified 5% CO2 incubator. 16 hours later the cells were pre-treated with each of the inhibitors at concentration of 100, 50 or 10 μM for 30 minutes 100 ng/ml of LPS was then added to the cells and supernatants were collected after 16 hours and analysed for TNF-α production by ELISA.

[2] = system: LPS mediated PGE-2 production; assay: PGE-2 production in LPS treated RAW macrophage cells (ELISA); format: cell-based, murine; settings: 100 μM inhibitor, 100 ng/ml LPS (FIG. 4)
Description: Raw macrophage murine cells were plated at a cell density of 1×10^5 and pre-treated with 100 μM of each of the inhibitors […] for 30 minutes at 37° C. in a humidified 5% CO2 incubator. Raw macrophage cells were then treated with 100 ng/ml of LPS and supernatants were collected after 16 hours at 37° C. in a humidified 5% CO2 incubator and analysed for PGE-2 production. Levels of PGE-2 were measured by ELISA. (CAT # KGE004 R&D Syst).

[3] = system: Lewis Lung carcinoma cells (LLC); assay: LLC-GLuc proliferation assay with rMIF; format: cell-based, mouse; settings: 100 μM inhibitor, 100 ng/ml rMIF, 48 hours (FIG. 5)
Description: LLC-GLuc cells were plated in a 6 well plate at a density of 5×10^4 cells/ml in DMEM supplemented with P/S, 10% FCS and L-Glu. After overnight adherence, 100 ng/ml MIF was added along with the inhibitors or DMSO to a total of 1 ml serum free medium. Cells were harvested after 48 hours by trypsinisation and counted in a haemocytometer.
The ability of candidate compounds to reduce cellular proliferation was also examined. For this assay, LLC cells were plated at a cell density of 5×10^4 cells/ml. The cells were then pre-treated with TI 19 or ISO-1 at a concentration of 100 μM. The cells were then treated with 100 ng/ml of recombinant MIF. The cells were incubated at 37° C. in a humidified 5% CO2 incubator and after 48 hours the cells were harvested and counted.

Structure (SMILES): Cc1ccccc1-c1cc2ccccc2c(=O)o1 [TI 19]
- reduction of TNF-α production, in words ([1]; 10 μM inhibitor (FIG. 2C)): more effective than ISO-1
- reduction of TNF-α production, in words ([1]; 50 μM inhibitor (FIG. 2B)): more effective than the commercial standard ISO-1
- reduction of TNF-α production, in words ([1]; concentration not given): more effective at reducing TNF-α than the commercially available ISO-1; also recorded: reduction in TNF-α production
- reduction of LPS mediated PGE-2 production, in words [2]: significantly reduces; also recorded: greater reduction in PGE-2 than ISO-1; also recorded: reduced PGE-2 levels to comparable levels in untreated cells
- reduction of MIF induced proliferation, in words [3]: inhibited significantly; also recorded: reduced proliferation to levels comparable with untreated cells; also recorded: reduced cell proliferation
